Reference: PMC6243750, “Behavioral Evidence and Olfactory Reception of a Single Alarm Pheromone Component in Halyomorpha halys” (Frontiers in Physiology, 2018)

Assays:
H. halys OBP16 [1] = biological target: T1, H. halys OBP16 (Halyomorpha halys, UniProt A0A1L2JGT7); assay: Competitive fluorescence-binding assay with 1-NPN as probe
T1 sequence (A0A1L2JGT7 23-177): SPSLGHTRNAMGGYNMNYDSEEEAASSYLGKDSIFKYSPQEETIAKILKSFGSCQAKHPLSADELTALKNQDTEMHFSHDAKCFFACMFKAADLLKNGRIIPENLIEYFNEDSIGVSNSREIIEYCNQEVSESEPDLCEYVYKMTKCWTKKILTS
Experimental: (§1) Emission fluorescence spectra were measured on a HORIBA FluoromMax®-4 fluorescence spectrophotometer in a right-angle configuration with a 1 cm light path quartz cuvette. The protein was dissolved in 50 mM Tris-HCl buffer, pH 7.4, while all ligands used in binding experiments were used as 1 mM methanol solutions. The excitation wavelength was 337 nm, and the range of the scanning emission wavelength was 380–450 nm.
(§2) The binding abilities of the OBPs and (E)-2-decenal were later investigated. Fluorescence intensities were automatically subtracted from blank fluorescence values when harvested from instrument. The excitation wavelength was set at 337 nm, and the range of the scanning emission wavelength was 380–450 nm. First, 2 mL 50-mM Tris-HCl solution was added, and then the OBP and 1-NPN were added until the concentration was 2 μM. The highest stable fluorescence intensity was record. Then, we added the (E)-2-decenal, which was dissolved in methanol in the cuvette, and continued the titration from 2 μM until the fluorescence intensity was stable. The highest stable fluorescence intensity was recorded. Each OBP was tested three times. The dissociation constant was calculated based on the formula Kd = [IC50]/(1 + [1-NPN]/K1−NPN), where IC50 represents the (E)-2-decenal concentration when the fluorescence intensity of [OBP/1-NPN] declined to the half of the highest value, [1-NPN] represents the dissociative concentration of 1-NPN, and K1−NPN represents the dissociation constant of OBP/1-NPN.

H. halys OBP25 [2] = biological target: T2, H. halys OBP25 (Halyomorpha halys, UniProt A0A1L2JGT3); assay: as above
T2 sequence (A0A1L2JGT3 20-148): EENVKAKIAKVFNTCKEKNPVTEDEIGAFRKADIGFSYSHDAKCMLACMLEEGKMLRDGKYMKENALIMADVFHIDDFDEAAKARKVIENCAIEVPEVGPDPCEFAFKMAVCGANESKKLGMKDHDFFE
Experimental: as §1, §2

H. halys OBP30 [3] = biological target: T3, H. halys OBP30 (Halyomorpha halys, UniProt A0A1P8P1N8); assay: as above
T3 sequence (A0A1P8P1N8 19-136): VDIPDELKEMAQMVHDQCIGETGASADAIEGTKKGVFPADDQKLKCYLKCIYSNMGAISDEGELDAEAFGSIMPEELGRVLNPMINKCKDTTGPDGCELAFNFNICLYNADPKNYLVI
Experimental: as §1, §2

H. halys OBP4 [4] = biological target: T4, H. halys OBP4 (Halyomorpha halys, UniProt A0A1L2JGP5); assay: as above
T4 sequence (A0A1L2JGP5 20-212): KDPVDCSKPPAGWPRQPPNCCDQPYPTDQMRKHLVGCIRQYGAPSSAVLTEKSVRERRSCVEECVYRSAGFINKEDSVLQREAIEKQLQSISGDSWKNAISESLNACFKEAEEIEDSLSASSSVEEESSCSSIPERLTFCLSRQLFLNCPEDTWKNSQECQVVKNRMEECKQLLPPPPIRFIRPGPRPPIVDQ
Experimental: as §1, §2

H. halys OBP8 [5] = biological target: T5, H. halys OBP8 (Halyomorpha halys, UniProt A0A1N7TMV1); assay: as above
T5 sequence (A0A1N7TMV1 23-143): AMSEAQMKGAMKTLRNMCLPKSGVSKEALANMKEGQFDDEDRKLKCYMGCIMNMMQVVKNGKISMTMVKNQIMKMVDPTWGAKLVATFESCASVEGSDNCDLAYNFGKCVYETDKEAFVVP
Experimental: as §1, §2

H. halys antennae = assay: EAG recordings on excised antennae; design: species or system Halyomorpha halys; settings: 10 μg dose, all developmental stages, versus n-hexane control
Experimental: EAG recordings were used to identify electrophysiological activities of H. halys at each developmental stage (female and male adults, and nymphal larvae). Each antenna of the brown marmorated stink bug was prepared following the standard procedures of cutting its tip and base and immediately mounting the excised antenna between two glass capillary Ag/AgCl electrodes filled with Kaissling saline (Tang et al., [2016]). The electrode at the distal end of the antenna was connected through an interface box to a signal acquisition interface board (IDAD; Syntech, Netherlands).
n-Hexane was used as the control, and 1 μg/μl (E)-2-decenal was used as the test solution. The measure dose was 10 μg, and the order of antennal exposure was air, n-hexane, and (E)-2-decenal. In total, 10 replicates were used. The direct voltage was 2 mv, the continuous flow velocity was 150 ml/min, the stimulated flow velocity was 20 ml/min, the stimulation time was 0.1 s, and the stimulus intervals were 10 s.
The following equation was used to calculate the EAG recording result:
Relative response value = sample response value − control response value.

H. halys adults = assay: Grouped dispersal (repellency) test; type: in vivo, Halyomorpha halys; settings: 10 μg, 60 s
Experimental: A group test was performed first to assess the repellency of (E)-2-decenal to H. halys adults. In total, 10–20 adults were collected and moved into a plastic rearing box for 1 h to let the adults aggregate and rest before the test. A filter paper loaded with 10 μg (E)-2-decenal was then put into a syringe, and the volatile was released into the air at a distance of 1 cm from the aggregated H. halys adults. The test lasted for 60 s, and the number of dispersed H. halys were counted and recorded. n-Hexane was used as the control following the same protocol. In total, 10 replicates were performed for each treatment.

[6] = tested on: H. halys adults and 1st to 5th instar nymphs; assay: Route test with individual stink bugs on circular track; type: in vivo, Halyomorpha halys
Experimental: To identify the alarm pheromone activity in each developmental stage of H. halys (female and male adults, and 1st to 5th instar nymphs), we performed a behavioral test (Noge et al., [2015]) using a gradient of (E)-2-decenal solutions (10 μg/μl, 1 μg/μl, 100 ng/μl, 10 ng/μl, and 1 ng/μl) for the nymphs and the last four doses for both genders of adults. A circular track was made by joining the ends of a silicone tube (100 cm long, 1.2 cm inner diameter), and the track was placed on a tripod stand in the behavioral testing laboratory (25°C ± 1°C, relative humidity = 50% ± 10%). An individual H. halys was placed gently on the track and left for 5 min until it was motionless. Different 10-μl concentrations of (E)-2-decenal were loaded onto a filter paper disk (2 cm diameter), and the disk was then placed 2 mm from the stink bug's antenna. The time taken for the nymph or adult stink bug to change direction and the distance it moved away from the starting point within 15 s were observed and recorded. […] Every developmental stage of H. halys for each chemical treatment was tested 15 times.

male and female H. halys = tested on: male and female H. halys; design: method as in Zhong et al., 2017; settings: ref Zhong et al., 2017; cited from earlier work
adult N. viridula = tested on: adult N. viridula; design: method as in Lockwood and Story, 1987; settings: ref Lockwood and Story, 1987; cited from earlier work
H. halys = tested on: H. halys; design: method as in Zhang et al., 2014a; settings: combined with tridecane; ref Zhang et al., 2014a; cited from earlier work
entomopathogenic fungi = tested on: entomopathogenic fungi; design: method as in Weber et al., 2017b; settings: ref Weber et al., 2017b; cited from earlier work
H. halys OBP16 [7] = biological target: T1, H. halys OBP16; assay: Fluorescence binding of probe 1-NPN to OBP (Scatchard); settings: dissociation constant of OBP16/1-NPN, 2 μM OBP, 50 mM Tris-HCl pH 7.4; read-out: KOBPx/1-NPN
Experimental: as §1
(§3) The binding constants of OBPs with probe N-phenyl-1-naphtylamine (1-NPN) were determined. We first added 2 ml 50 mM Tris-HCl solution to the cuvette, then added the OBP until the concentration reached 2 μM, measured and recorded the emission spectrum, continued titration, and recorded the highest stable fluorescence intensity. The Scatchard equation was used to record the binding constant of each OPB with 1-NPN.

H. halys OBP25 [8] = biological target: T2, H. halys OBP25; assay: as above; settings: dissociation constant of OBP25/1-NPN, 2 μM OBP, 50 mM Tris-HCl pH 7.4; read-out: KOBPx/1-NPN
Experimental: as §1, §3

H. halys OBP30 [9] = biological target: T3, H. halys OBP30; assay: as above; settings: dissociation constant of OBP30/1-NPN, 2 μM OBP, 50 mM Tris-HCl pH 7.4; read-out: KOBPx/1-NPN
Experimental: as §1, §3

H. halys OBP4 [10] = biological target: T4, H. halys OBP4; assay: as above; settings: dissociation constant of OBP4/1-NPN, 2 μM OBP, 50 mM Tris-HCl pH 7.4; read-out: KOBPx/1-NPN
Experimental: as §1, §3

H. halys OBP8 [11] = biological target: T5, H. halys OBP8; assay: as above; settings: dissociation constant of OBP8/1-NPN, 2 μM OBP, 50 mM Tris-HCl pH 7.4; read-out: KOBPx/1-NPN
Experimental: as §1, §3

[12] = Kd = [IC50]/(1 + [1-NPN]/K1-NPN), OBP and 1-NPN 2 μM
[13] = concentration at which [OBP/1-NPN] fluorescence declined to half

CCCCCCC/C=C/C=O [(E)-2-decenal]
Kd (H. halys OBP16 [1]; [12]): 6.16 ± 0.42 µM | IC50 (H. halys OBP16 [1]; [13]): 13.7 ± 0.94 µM | Kd (H. halys OBP25 [2]; [12]): 2.21 ± 0.064 µM | IC50 (H. halys OBP25 [2]; [13]): 7.18 ± 0.21 µM | Kd (H. halys OBP30 [3]; [12]): 10.5 ± 0.64 µM | IC50 (H. halys OBP30 [3]; [13]): 16.7 ± 1.01 µM | binding activity to (E)-2-decenal (H. halys OBP4 [4]; OBP4, in words): did not show a good binding activity | Kd (H. halys OBP4 [4]; OBP4, Kd = [IC50]/(1 + [1-NPN]/K1-NPN), OBP and 1-NPN 2 μM): 26 ± 3.01 µM | IC50 (H. halys OBP4 [4]; OBP4, concentration at which [OBP/1-NPN] fluorescence declined to half): 31.3 ± 3.61 µM | Kd (H. halys OBP8 [5]; [12]): 8.61 ± 0.24 µM | IC50 (H. halys OBP8 [5]; [13]): 13.7 ± 0.38 µM | EAG responses (H. halys antennae): significantly greater electrophysiological responses compared with the n-hexane control, except for the 1st instar nymphs | Repellent rates (H. halys adults): 84.1 ± 5.14% | repellence compared with n-hexane control ([6]; 1 μg and 10 μg, all stages of H. halys): significantly repelled | moving distances compared with n-hexane control ([6]; 3rd to 5th instar nymphs, all tested doses, within 15 s): significantly longer moving distances | repellent effect starting at a tested dose ([6]; 5th instar nymphs, response time): 10 ng | repellence in Y-tube assays (male and female H. halys): strongly repel | alarm effects (adult N. viridula): no alarm effects | feeding deterrence (H. halys): strong feeding deterrent | effect on entomopathogenic fungi (entomopathogenic fungi): fungistatic effect and inhibits spore germination

c1ccc(Nc2cccc3ccccc23)cc1 [1-NPN, N-phenyl-1-naphtylamine]
Kd (H. halys OBP16 [7]): 1.13 ± 0.08 µM | Kd (H. halys OBP25 [8]): 0.51 ± 0.3 µM | Kd (H. halys OBP30 [9]): 2.79 ± 0.74 µM | Kd (H. halys OBP4 [10]): 9.18 ± 2.67 µM | Kd (H. halys OBP8 [11]): 2.74 ± 0.8 µM
